We go through one compound from US8399493B2, “Pyridinone derivatives and their use as positive allosteric modulators of mGluR2-receptors” (Janssen Pharmaceuticals, Inc., priority 2004, dated 2013).

The target of data set [1] is T1, native rat mGluR2 (Rattus norvegicus, UniProt P31421).
T1 construct: from tissue; host or cells: rat brain cortex membranes (Sprague-Dawley rats, Charles River Laboratories)
As to the kind of experiment: [35S]GTPγS binding assay using cortical rat brain membranes. In kind it is biochemical. The note with it: FIG. 1. An excerpt: The [^35S]GTPγS binding is a functional membrane-based assay used to study G-protein coupled receptor (GPCR) function. This method is using a binding assay to assess the initial step in receptor-mediated G protein activation in membranes prepared from cells expressing recombinant GPCR or using membranes from discrete area of the rat brain. In brief, the assay is measuring the activation of G proteins by catalyzing the exchange of guanosine 5′-diphosphate (GDP) by guanosine 5′-triphosphate (GTP) at the α subunit. The GTP-bounded G proteins dissociate into two subunits, Gα-GTP and Gβγ, which in turn regulate intracellular enzymes and ion channels. GTP is rapidly hydrolysed by the Gα-subunit (GTPases) and the G protein is deactivated and ready for new GTP exchange cycle (Harper (1998) Curr Protoc Pharmacol 2.6.1-10, John Wiley & Sons, Inc.). [^35S]GTPγS, a non-hydrolyzed analogue of GTP, is used for this purpose.
This method is widely used to study receptor activation of G protein in membranes prepared from rat brain tissue, including mGluR2 receptors (Schaffhauser et al 2003, Pinkerton et al, 2004). mGluR2 receptors are expressed in the rat brain cortex (Mutel et al (1998) J. Neurochem. 71:2558-64; Schaffhauser et al (1998) Mol. Pharmacol. 53:228-33) and are coupled to Gαi-protein, a preferential coupling for this method.
[^35S]GTPγS binding assay using cortical rat brain membranes preparation was used and adapted from Schaffhauser et al ((2003) Mol. Pharmacol. 4:798-810) for the detection of the positive allosteric modulator properties of the compounds of this invention on native rat mGluR2. In order to eliminate the possible interference with group III Gαi-protein coupled mGluRs (mGluR4, mGluR7, mGluR8; mGluR6 is not expressed in the cortex (Laurie et al (1997) Neuropharmacol. 36:145-52)), the potentiation of the response to a selective mGluR2 agonist, such as DCG-IV (Cartmell et al. (1998) Br. J. Pharmacol. 123(3):497-504) or LY379268 (Monn et al. (1999) J. Med. Chem 42:1027-40), by compounds described in the present invention was performed.
Cortices were dissected out from brains of 200-300 g Sprague-Dawley rats (Charles River Laboratories, L'Arbresle, France). Tissues were homogenized in 6 volumes (vol/wt) of 10% sucrose at 4° C. using a glass-teflon homogenizer. The homogenate was centrifuged at 1250 g for 10 min, and the supernatant was centrifuged at 40,000 g for 20 min (4° C.). The pellet was resuspended in 25 ml water using a Polytron disrupter (Kinematica AG, Luzern, Switzerland) and centrifuged for 10 min at 3000 g. (4° C.). The supernatant was centrifuged at 40,000 g for 20 min (4° C.). The supernatant was discarded and the pellet washed twice by resuspension in 10 volumes 5 mM HEPES-KOH, pH 7.4. The homogenate was frozen and thawed twice and centrifuged at 40,000 g for 20 min. The final pellet was resuspended in 5 mM HEPES-KOH, pH 7.4 and stored at −80° C. before its use. Protein concentration was determined by the Bradford method (Bio-Rad protein assay, Reinach, Switzerland) with bovine serum albumin as standard.
Measurement of mGluR2 positive allosteric modulators properties in rat cortical membranes was performed as follows: rat cortical membrane (1.5 μg) were incubated in 96-well microplates for 15 min at 30° C. in assay buffer (50 mM HEPES pH 7.4, 100 mM NaCl, 5 mM MgCl2, 10 μM GDP, 10 μg/ml saponin, EGTA 0.2 mM) with increasing concentrations of positive allosteric modulator (from 1 nM to 10 μM) and a minimal concentration of DCG-IV or LY379268, a selective mGluR2 agonist, that has been determined in previous experiments and that corresponds to the EC20, a concentration that gives 20% of the maximal response of the agonist, and is in accordance to published data (Pin et al. (1999) Eur. J. Pharmacol. 375:277-294). […]
On the technique in general: GTPγS resists hydrolysis and so accumulates on activated G proteins.

Data set [2] has as its system Male C57BL6/j mice. As to the kind of experiment: PCP-induced locomotor activity in mice (phencyclidine model of schizophrenia). The data set is classed as in vivo. The note with it: 200 mg/kg i.p., PCP 5 mg/kg s.c., distance traveled over 60 minutes, FIG. 2. An excerpt:
PCP-induced increases in locomotor ambulation are a widely accepted animal model of schizophrenia. This model is based on the evidence that phencyclidine induces a schizophrenia-like syndrome in humans including increased motor behaviors, disruption of cognition and impairment of working memory (Steinpreis R E (1996) Behav Br Res. 74:45-55; Abi-Saab et al. (1998) Pharmacopsychiatry, 31:104-109). Further, it has also been shown that antipsychotic drugs that are effective in the treatment of schizophrenia reduce the locomotor activating effect of PCP (Gleason & Shannon (1997) Psychopharmacology, 129:79-84). […]
(§1) The effects of compounds on PCP- or amphetamine-induced locomotor activation in mice were tested. […] Locomotor activity (ambulations) was monitored by a videotracking system (VideoTrack, Viewpoint, Champagne au Mont d'Or, France) that recorded the ambulatory movements of mice. […] On test days, test compounds (200 mg/kg i.p. (intraperitoneal)) or vehicle were administered immediately before the PCP (5 mg/kg s.c. (sub-cutaneous), amphetamine (3.0 mg/kg s.c.) or saline injection. Mice were placed into the locomotor boxes immediately after the PCP, amphetamine or saline vehicle injection and their locomotor activity, defined as the distance traveled in centimeters (cm), was measured for 60 minutes. […]

For data set [3], the system named is Male C57BL6/j mice. In words: Amphetamine-induced locomotor activity in mice (amphetamine model of schizophrenia). The data set is classed as in vivo. The note with it: 200 mg/kg i.p., amphetamine 3.0 mg/kg s.c., distance traveled over 60 minutes, FIG. 3.
Excerpt: Amphetamine-induced increases in locomotor ambulation are well known and are widely used as a model of the positive symptoms of schizophrenia. This model is based on evidence that amphetamine increases motor behaviors and can induce a psychotic state in humans (Yui et al. (2000) Ann NY Acad Sci 914:1-12). Further, it is well known that amphetamine-induced increases in locomotor activity are blocked by antipsychotics drugs that are effective in the treatment of schizophrenia (Arnt (1995) Eur J Pharmacol 283:55-62). […]
as §1
Statistical analyses were performed using GraphPad PRISM statistical software (GraphPad, San Diego, Calif., USA). Data were analyzed using unpaired t-tests. […]

T1 sequence (P31421 19-872): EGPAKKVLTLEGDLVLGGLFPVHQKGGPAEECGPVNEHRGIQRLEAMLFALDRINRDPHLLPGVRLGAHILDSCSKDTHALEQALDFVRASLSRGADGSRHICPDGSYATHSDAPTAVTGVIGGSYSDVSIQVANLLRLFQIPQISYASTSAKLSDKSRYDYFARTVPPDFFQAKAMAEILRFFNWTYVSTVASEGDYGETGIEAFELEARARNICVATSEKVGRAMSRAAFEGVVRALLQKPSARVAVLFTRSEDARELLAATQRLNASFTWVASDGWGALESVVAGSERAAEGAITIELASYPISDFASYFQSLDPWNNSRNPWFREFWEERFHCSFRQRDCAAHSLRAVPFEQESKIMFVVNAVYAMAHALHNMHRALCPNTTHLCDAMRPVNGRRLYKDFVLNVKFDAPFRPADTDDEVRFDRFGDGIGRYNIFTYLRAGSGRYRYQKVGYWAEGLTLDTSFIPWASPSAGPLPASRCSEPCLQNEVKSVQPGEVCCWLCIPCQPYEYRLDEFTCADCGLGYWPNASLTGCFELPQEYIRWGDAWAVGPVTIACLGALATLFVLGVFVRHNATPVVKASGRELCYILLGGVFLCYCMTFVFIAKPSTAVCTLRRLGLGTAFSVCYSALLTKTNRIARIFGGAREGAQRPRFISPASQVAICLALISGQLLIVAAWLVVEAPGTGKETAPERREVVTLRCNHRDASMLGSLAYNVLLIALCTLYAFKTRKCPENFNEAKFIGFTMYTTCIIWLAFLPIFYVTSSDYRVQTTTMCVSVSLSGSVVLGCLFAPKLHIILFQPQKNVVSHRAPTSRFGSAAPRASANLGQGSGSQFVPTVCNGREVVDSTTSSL

Usually melting point stands for the temperature, or range, at which the solid turns liquid. Consider `COc1ccc(-c2ccc(=O)n(Cc3ccc(Cl)cc3F)c2)cc1` [4-16], for which the melting point amounted to 88 °C. Moreover, the “ability to increase the [GTPγ35S] binding induced by DCG-IV” value in data set [1] (10 μM compound with 50 nM DCG-IV, compared to agonist alone) was “significantly potentiated”. For the same compound, in data set [1] (10 μM compound without 50 nM DCG-IV, compared to buffer value), the “agonistic activity in the absence of DCG-IV” value is “no statistically significant agonistic activity”. Further, in data set [2], the “effect on the increase in locomotor activity induced by PCP” value is “significantly attenuated”. In addition, the “effect on the increase in locomotor activity induced by amphetamine” value in data set [3] was “significantly attenuated”.
